Assay results: ChEMBL document CHEMBL4414608, “Secophragmalin-Type Limonoids from Trichilia connaroides: Isolation, Semisynthesis, and Their Cytotoxic Activities” (J Nat Prod, 2019)

How the values were obtained:
A549 = assay: Cytotoxicity against human A549 cells assessed as cell growth inhibition measured after 24 hrs by MTT assay; format: functional, cell-based; conditions: A549, 24 h
HeLa = assay: Cytotoxicity against human HeLa cells assessed as cell growth inhibition measured after 24 hrs by MTT assay; format: functional, cell-based
DU-145 [1] = assay: Cytotoxicity against human DU145 cells assessed as cell growth inhibition measured after 24 hrs by MTT assay; format: functional, cell-based; conditions: DU-145, 24 h
COLO 205 = assay: Cytotoxicity against human COLO205 cells assessed as cell growth inhibition measured after 24 hrs by MTT assay; format: functional, cell-based; conditions: COLO 205, 24 h
SK-OV-3 = assay: Cytotoxicity against human SKOV3 cells assessed as cell growth inhibition measured after 24 hrs by MTT assay; format: functional, cell-based; conditions: SK-OV-3, 24 h
DU-145 [2] = assay: Cell cycle arrest in human DU145 cells assessed as accumulation at G0/G1 phase at 5.2 uM measured after 24 hrs by RNase A/propidium iodide staining based flow cytometry analysis (reference value: 51.75 %); format: functional
DU-145 [3] = assay: Induction of apoptosis in human DU145 cells assessed as live cells at 5.2 uM measured after 24 hrs by Annexin-V/FITC and propidium iodide staining based flow cytometry (reference value: 95.62 %); format: functional
DU-145 [4] = assay: Induction of apoptosis in human DU145 cells assessed as early apoptotic cells at 5.2 uM measured after 24 hrs by Annexin-V/FITC and propidium iodide staining based flow cytometry (reference value: 0.25 %); format: functional
DU-145 [5] = assay: Induction of apoptosis in human DU145 cells assessed as late apoptotic cells at 5.2 uM measured after 24 hrs by Annexin-V/FITC and propidium iodide staining based flow cytometry (reference value: 1.49 %); format: functional
DU-145 [6] = assay: Induction of apoptosis in human DU145 cells assessed as necrotic cells at 5.2 uM measured after 24 hrs by Annexin-V/FITC and propidium iodide staining based flow cytometry (reference value: 2.64 %); format: functional
DU-145 [7] = assay: Induction of apoptosis in human DU145 cells assessed as live cells at 8 uM measured after 24 hrs by Annexin-V/FITC and propidium iodide staining based flow cytometry (reference value: 95.62 %); format: functional
DU-145 [8] = assay: Induction of apoptosis in human DU145 cells assessed as early apoptotic cells at 8 uM measured after 24 hrs by Annexin-V/FITC and propidium iodide staining based flow cytometry (reference value: 0.25 %); format: functional
DU-145 [9] = assay: Induction of apoptosis in human DU145 cells assessed as late apoptotic cells at 8 uM measured after 24 hrs by Annexin-V/FITC and propidium iodide staining based flow cytometry (reference value: 1.49 %); format: functional
DU-145 [10] = assay: Induction of apoptosis in human DU145 cells assessed as necrotic cells at 8 uM measured after 24 hrs by Annexin-V/FITC and propidium iodide staining based flow cytometry (reference value: 2.64 %); format: functional

With `C/C=C(\C)C(=O)O[C@@H]1[C@]2(OC(=O)CCCC)C=C3C4=CC(=O)O[C@@H](c5ccoc5)[C@]4(C)CC[C@@H]3[C@@]3(C)[C@H](C[C@]1(C)[C@H]3[C@@H](O)C(=O)OC)O2` the IC50 (A549) was 9.4 µM, the IC50 (HeLa) was greater than 100 µM and the IC50 (DU-145 [1]) was 5.2 µM. It also gave an IC50 (COLO 205) of 4 µM, an IC50 (SK-OV-3) of 13.7 µM and an Activity (DU-145 [2]) of 42.93%. It also gave an Activity (DU-145 [3]) of 83.45%, an Activity (DU-145 [4]) of 1.74% and an Activity (DU-145 [5]) of 10.35%. The Activity (DU-145 [6]) was 4.46%, the Activity (DU-145 [7]) was 85.39% and the Activity (DU-145 [8]) was 1.39%. The Activity (DU-145 [9]) was 8.11% and the Activity (DU-145 [10]) was 5.11%.
